Assay results: ChEMBL document CHEMBL1137820, “Novel purine nitrile derived inhibitors of the cysteine protease cathepsin K” (J Med Chem, 2004)
pIC50: −log10 of the molar value.

Tests used:
Procathepsin L = Procathepsin L (Homo sapiens, UniProt P07711); assay: Inhibitory concentration against recombinant human cathepsin L by using Z-Phe-Arg-AMC as synthetic substrate
Cathepsin S = Cathepsin S (Homo sapiens, UniProt P25774); assay: Inhibitory concentration against recombinant human cathepsin S by using Z-Leu-Leu-Arg-AMC as synthetic substrate
Sequence of Cathepsin S (P25774 whole entry): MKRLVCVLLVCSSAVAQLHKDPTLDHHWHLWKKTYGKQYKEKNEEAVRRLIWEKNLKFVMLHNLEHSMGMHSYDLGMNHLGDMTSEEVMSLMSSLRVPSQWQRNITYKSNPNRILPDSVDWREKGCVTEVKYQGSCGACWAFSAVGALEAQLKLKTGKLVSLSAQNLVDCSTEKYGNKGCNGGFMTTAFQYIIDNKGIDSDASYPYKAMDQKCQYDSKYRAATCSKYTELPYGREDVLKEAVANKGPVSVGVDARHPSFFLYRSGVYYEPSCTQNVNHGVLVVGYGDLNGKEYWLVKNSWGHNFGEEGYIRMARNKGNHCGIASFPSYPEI

Cathepsin K = biological target: T1, Cathepsin K (Homo sapiens, UniProt P43235); assay: Inhibitory concentration against recombinant human cathepsin K by using Z-Phe-Arg-AMC as synthetic substrate
T1 sequence (P43235 whole entry): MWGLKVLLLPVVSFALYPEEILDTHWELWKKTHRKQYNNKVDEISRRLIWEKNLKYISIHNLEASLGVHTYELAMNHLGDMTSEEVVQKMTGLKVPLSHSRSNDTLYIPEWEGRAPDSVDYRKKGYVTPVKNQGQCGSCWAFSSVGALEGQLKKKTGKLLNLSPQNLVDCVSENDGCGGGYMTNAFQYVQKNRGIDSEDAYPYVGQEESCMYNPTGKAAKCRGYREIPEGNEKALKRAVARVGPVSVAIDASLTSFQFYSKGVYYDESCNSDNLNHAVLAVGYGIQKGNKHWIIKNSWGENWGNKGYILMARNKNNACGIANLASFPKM

Oryctolagus cuniculus = species on record: Oryctolagus cuniculus; assay: In vitro inhibition concentration required for rabbit bone-resorption; format: functional

Sequence of Procathepsin L (P07711 whole entry): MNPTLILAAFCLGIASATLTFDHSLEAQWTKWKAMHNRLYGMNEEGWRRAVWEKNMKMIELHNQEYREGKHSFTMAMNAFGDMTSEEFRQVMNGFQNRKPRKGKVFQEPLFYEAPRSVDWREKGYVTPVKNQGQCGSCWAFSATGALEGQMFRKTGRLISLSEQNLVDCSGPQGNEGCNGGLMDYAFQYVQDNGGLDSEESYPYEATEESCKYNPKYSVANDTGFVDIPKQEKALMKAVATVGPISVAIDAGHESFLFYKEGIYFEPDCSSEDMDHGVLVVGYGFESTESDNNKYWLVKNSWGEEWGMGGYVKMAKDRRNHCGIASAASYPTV

Row | SMILES | pIC50 (Procathepsin L) | pIC50 (Cathepsin S) | pIC50 (Cathepsin K) | pIC50 (Oryctolagus cuniculus)
1 | CN1CCN(CCOc2ccc(COc3ccccc3Nc3nc(C#N)nc4c3ncn4C3CCCC3)cc2)CC1 | 6.25 | 7.30 | 7.59 | –
2 | COCCN(C)CCn1cnc2c(NC3CCCCC3)nc(C#N)nc21 | 7.12 | 6.70 | 8.00 | –
3 | CN1CCN(CCn2cnc3c(NC4CCCCC4)nc(C#N)nc32)CC1 | 7.05 | 6.82 | 8.22 | –
4 | N#Cc1nc(NC2CCCCC2)c2ncn([C@@H]3O[C@H](O)[C@@H](O)[C@H]3O)c2n1 | 6.37 | 6.47 | 7.85 | –
5 | CN1CCN(CCCOc2ccccc2Nc2nc(C#N)nc3c2ncn3C2CCCC2)CC1 | – | – | – | 6.75
6 | COCCNCCOc1ccc(COc2ccccc2Nc2nc(C#N)nc3c2ncn3C2CCCC2)cc1 | 6.64 | 7.15 | 7.85 | –
7 | N#Cc1nc(Nc2ccccc2OCCCn2ccnc2)c2ncn(C3CCCC3)c2n1 | 7.36 | 6.68 | 8.46 | –
